Assay results as given in paper PMC6009907, “Synthesis, characterization and in vitro inhibition of metal complexes of pyrazole based sulfonamide on human erythrocyte carbonic anhydrase isozymes I and II” (Journal of Enzyme Inhibition and Medicinal Chemistry, 2017).

Legend:
Assay type in all cases: biochemical
hCA-I [1] = target: T1, hCA-I (Homo sapiens, UniProt P00915); assay: Esterase activity assay (4-nitrophenylacetate, 348 nm), hCA-I; conditions: hCA-I purified from human erythrocytes, 25 °C, pH 7.4
T1 construct: Purification of isoenzymes hCA-I and hCA-II from human erythrocytes; from tissue; host or cells: human erythrocytes (blood)
T1 sequence (P00915 whole entry): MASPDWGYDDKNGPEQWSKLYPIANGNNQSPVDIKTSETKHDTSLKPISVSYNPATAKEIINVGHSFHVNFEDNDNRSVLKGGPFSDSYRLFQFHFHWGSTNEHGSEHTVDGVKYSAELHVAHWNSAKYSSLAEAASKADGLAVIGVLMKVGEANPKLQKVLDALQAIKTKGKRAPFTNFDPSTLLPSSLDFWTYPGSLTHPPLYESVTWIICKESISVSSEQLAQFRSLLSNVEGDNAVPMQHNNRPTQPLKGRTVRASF
Description: (§1) In order to purify hCA-I and hCA-II isoenzymes, first, human blood was centrifuged at 1500 rpm for 20 min, and after the removal of the plasma, the erythrocytes were washed with an isotonic solution (0.9% NaCl). After that, the erythrocytes were lysed with 1.5 volume of ice-cold water. The lysate was centrifuged at 20 000 rpm for 30 min to remove cell membranes and non-lysed cells. […] After extensive washing with 25 mM tris–HCl/22 mM Na2SO4 (pH 8.7), the hCA-I and hCA-II isoenzymes were eluted with 1.0 M NaCl/25 mM Na2HPO4 (pH 6.3) and 0.1 M CH3COONa/0.5 M NaClO4 (pH 5.6).[45]^,[46] The amount of purified protein was estimated by the Bradford method[47] and SDS-PAGE was carried out to determine whether the elute containing the enzyme[48] (Supplemental Figure 1).
(§2) The enzymatic reaction, in a total volume of 3.0 mL, contained 1.4 mL of 0.05 M tris–SO4 buffer (pH 7.4), 1 mL of 3 mM 4-nitrophenylacetate, 0.5 mL H2O and 0.1 mL enzyme solution. A reference measurement was obtained by preparing the same cuvette without enzyme solution.
(§3) The method for determination of Ki values is described elsewhere.[52–56] […] Regression analysis graphs were drawn by plotting inhibitor concentrations versus enzyme activity by using Microsoft Excel Program.

hCA-I [2] = target: T1, hCA-I; assay: CO2-hydratase activity assay (Wilbur and Anderson), hCA-I; conditions: hCA-I purified from human erythrocytes; CO2 hydration
Description: as §1
(§4) Carbonic anhydrase activity was assayed by following the hydration of CO2 according to the method described by Wilbur and Anderson.[49] CO2-hydratase activity as an enzyme unit (EU) was calculated by using the equation ((t0−tc)/tc) where t0 and tc are the times for pH change of the nonenzymatic and the enzymatic reactions, respectively.

hCA-II [3] = target: T2, hCA-II (Homo sapiens, UniProt P00918); assay: Determination of Ki values (esterase activity, Lineweaver–Burk), hCA-II; conditions: five substrate concentrations, Lineweaver–Burk plot
T2 construct: Purification of isoenzymes hCA-I and hCA-II from human erythrocytes; from tissue; host or cells: human erythrocytes (blood)
Description: as §1, §3

hCA-II [4] = target: T2, hCA-II; assay: Esterase activity assay (4-nitrophenylacetate, 348 nm), hCA-II; conditions: hCA-II purified from human erythrocytes, 25 °C, pH 7.4
Description: as §1, §2, §3

hCA-II [5] = target: T2, hCA-II; assay: CO2-hydratase activity assay (Wilbur and Anderson), hCA-II; conditions: hCA-II purified from human erythrocytes; CO2 hydration
Description: as §1, §4

hCA-I [6] = target: T1, hCA-I; assay: Determination of Ki values (esterase activity, Lineweaver–Burk), hCA-I; conditions: five substrate concentrations, Lineweaver–Burk plot
Description: as §1, §3

**Q.** How did the IC50 (hCA-I [1]) turn out when `CCOC(=O)c1c(C(=O)Nc2nnc(S(N)(=O)=O)s2)nn(-c2cccc([N+](=O)[O-])c2)c1-c1ccccc1` [compound 1, ethyl 1-(3-nitrophenyl)-5-phenyl-3-((5-sulfamoyl-1,3,4-thiadiazol-2-yl)carbamoyl)-1H-pyrazole-4-carboxylate] was run?
**A.** 2800 nM

**Q.** What about the IC50 (hCA-I [2]) of the same compound?
**A.** 1400 nM

**Q.** And the Ki (hCA-II [3])?
**A.** 5300 nM

**Q.** And the IC50 (hCA-II [4])?
**A.** 5600 nM

**Q.** What about the IC50 (hCA-II [5]) of the same compound?
**A.** 900 nM

**Q.** What about the Ki (hCA-I [6]) of the same compound?
**A.** 1100 nM
